Assay results as given in patent US9079863B2, “Crystalline forms for 5-amino-2,3-dihydrophthalazine-1,4-dione sodium salt, pharmaceutical preparations containing the same and method for the production of said forms” (METRIOPHARM AG, priority 2010, dated 2015).
Structures can show the parent of a compound that is named as a salt. Where two headings read alike, the source gives them in different places.

Assays:
[1] = tested on: isolated mouse bone marrow macrophages
Method: For this purpose, isolated mouse bone marrow macrophages were first treated with form II in concentrations of 2, 20 or 200 μg/mL and stimulated 1 h after treatment with 100 ng/mL or 10 ng/mL LPS. The supernatants were collected 24 h later, and the concentration of TNF-alpha and IL-6 was measured. Not stimulated macrophages, not stimulated macrophages treated with 200 μg/mL form II and LPS-stimulated macrophages (10 or 100 ng/mL LPS) were used as controls.

S. pyogenes [2] = conditions: infected mice, sodium salt; for Weight development/increase Total MW: complete test time 48 h, survivors
Method: (§1) In a mouse model of the Gram-positive sepsis (infection with S. pyogenes) the therapeutic usability of the crystal forms I and II of the 5-amino-2,3-dihydrophthalazine-1,4-dione sodium salt was tested. The administration of active ingredient was made parenterally 6 hours after the infection occurred. A second administration of active ingredient was made 24 hours after the first application. The test was completed 48 hours after the infection. For both forms (substance groups) three different doses were used. The mice obtained 2, 20 or 200 μg each of form I or form II per animal and application.
(§2) The individual treatment groups comprised 5 animals each, and for the not infected controls two repetitions and for the infected controls and that groups that contained form II four repetitions were made, so that in total 180 animals were in the test.
In the sepsis model described in Example 3, the influence of crystal forms I and II of the 5-amino-2,3-dihydrophthalazine-1,4-dione sodium salt on the weight development of mice infected with S. pyogenes was tested. The development of the body weight during an acute infection may supply important predictive information.

[3] = 0.25 g in 10 mL H2O VE, stirring 500 rpm, 25° C., first minutes after addition; sodium salt
Method: The complete dissolution of 0.25 g form I or form II, respectively, in 10 mL H2O VE was achieved under stirring (500 rpm) at 25° C.

[4] = for Disintegration temperature: 30-500° C. in synthetic air (4 N2: 1 O2), sodium salt
Method: (Table 5). The solid phase transformation of the dihydrate according to U.S. Pat. No. 6,483,326 B1 was measured by means of the simultaneous thermogravimetry-differential thermal analysis with a Linseis L81-077 coupled with mass spectroscopy measurement with a Netzsch STA 449 C thermobalance, with MS and FTIR coupling at 30-300° C. under helium. The disintegration temperatures of forms I-II were determined with the same device at 30-500° C. in synthetic air (4 N2: 1 O2). The data were analyzed with the factory-set software Proteus.

S. pyogenes [5] = conditions: 48 hours after the infection
Method: as §1

S. pyogenes [6] = conditions: 48 hours after the infection; remark: listed apart in the source
Method: as §1, §2
In the sepsis model described in Example 3, the influence the crystal forms II and I of the 5-amino-2,3-dihydrophthalazine-1,4-dione sodium, salt on the probability of survival of the mice infected with S. pyogenes was tested.

physchem = conditions: saturated solution
Method: Further, the solubility of the crystalline forms in a saturated solution was determined.

[7] = healthy mice
Method: as §1
Blood taking occurred after 48 hours at the end of the second application day.

S. pyogenes [8] = conditions: for Germ load (CFU) Blood MW / Germ load (CFU) Liver MW: 48 hours after the infection, sodium salt
Method: as §1, §2
In the sepsis model described in Example 3, the influence of crystal forms II and I of the 5-amino-2,3-dihydrophthalazine-1,4-dione sodium salt on the germ load of the mice infected with S. pyogenes in blood and liver was tested. The test was completed 48 hours after the infection, and the germ load (CFU) existing at this time in blood and liver was determined (see Table).

[9] = tested on: stimulated murine macrophages; conditions: 1 μg/mL LPS with 100 μg/mL
Method: These were measured in the combination of 2 μg/mL active ingredient with macrophages stimulated with 100 ng/mL LPS as well as in the group of the macrophages stimulated with 10 ng/mL in the active ingredient concentration with 20 μg/mL.

[10] = healthy mice, end of the second application day
From the text: When administering form I and form II to healthy mice, it was investigated, whether and which influence the application has on certain liver enzymes, in particular the transaminases GOT (AST) and GPT (ALT). Blood taking occurred at the end of the second application day.

[11] = not infected mice; for Weight development/increase MW: over two days
Method: as §1, §2
It is known that the toxicity of substances in an animal test with growing-up mice or rate can influence the weight development.

[12] = dose 2 μg, LPS 10 ng/mL, supernatant 24 h
[13] = dose 2 μg, LPS 100 ng/mL, supernatant 24 h
[14] = dose 20 μg, LPS 10 ng/mL, supernatant 24 h
[15] = dose 20 μg, LPS 100 ng/mL, supernatant 24 h
[16] = dose 200 μg, LPS 10 ng/mL, supernatant 24 h
[17] = dose 200 μg, LPS 100 ng/mL, supernatant 24 h
[18] = dose 200 μg, not stimulated (no LPS)

Nc1cccc2c(=O)[nH][nH]c(=O)c12 [Form II, 5-amino-2,3-dihydrophthalazine-1,4-dione sodium salt]
Change of TNF-alpha ([1]; 10 ng/mL LPS, 200 μg/mL): significant reduction
Change of TNF-alpha concentration ([1]; 100 ng/mL LPS, all active ingredient concentrations): significant reduction
Change of IL-6 values ([1]; 2 μg/mL with 100 ng/mL LPS): significant reductions
Change of IL-6 values ([1]; 20 μg/mL with 10 ng/mL LPS): significant reductions
IL-6 MW [1, 12]: 3.93 ng/mL
TNF-alpha MW [1, 12]: 8.38 ng/mL
IL-6 MW [1, 13]: 2.67 ng/mL
TNF-alpha MW [1, 13]: 7.40 ng/mL
IL-6 MW [1, 14]: 1.61 ng/mL
TNF-alpha MW [1, 14]: 9.80 ng/mL
IL-6 MW [1, 15]: 4.28 ng/mL
TNF-alpha MW [1, 15]: 9.06 ng/mL
IL-6 MW [1, 16]: 3.42 ng/mL
TNF-alpha MW [1, 16]: 6.76 ng/mL
IL-6 MW [1, 17]: 4.00 ng/mL
TNF-alpha MW [1, 17]: 7.69 ng/mL
IL-6 MW [1, 18]: 0.00 ng/mL
TNF-alpha MW [1, 18]: 0.00 ng/mL
Immunostimulating effect on not LPS-induced macrophages ([1]; not LPS-induced): could not be shown
Weight development/increase Total MW (S. pyogenes [2]; 2 μg): -2.02 g
Weight development/increase Day 1 MW (S. pyogenes [2]; 2 μg): -0.57 g
Weight development/increase Total MW (S. pyogenes [2]; 20 μg): -1.69 g
Weight development/increase Day 1 MW (S. pyogenes [2]; 20 μg): -0.55 g
Weight development/increase Total MW (S. pyogenes [2]; 200 μg): -1.86 g
Weight development/increase Day 1 MW (S. pyogenes [2]; 200 μg): -0.72 g
Weight development/increase Total MW (S. pyogenes [2]; all doses (total)): -1.86 g
Weight development/increase Day 1 MW (S. pyogenes [2]; all doses (total)): -0.62 g
Initial dissolution rate [3]: higher than that of form I
Disintegration temperature ([4]; listed as form II): 385 °C
Disintegration temperature [4]: 385 °C ± 10 °C
Time for which the crystalline form is stable ([4]; room temperature (25° C.) and 40° C.): at least two
IL-6 in infected mice (S. pyogenes [5]; not confirmed in all repetitions): in part distinct tendencies of an IL-6 reduction
Liver enzyme values GOT (AST) and GPT (ALT) (S. pyogenes [5]; infected mice, some repetitions only): tendencies to reduce the liver enzyme values
Share of surviving mice (S. pyogenes [6]; 2 μg, sodium salt): 90%
Share of surviving mice (S. pyogenes [6]; 20 μg): 80%
Share of surviving mice (S. pyogenes [6]; 200 μg, sodium salt): 70%
Survival compared to the controls (S. pyogenes [6]): increase of the share of surviving animals
Share of surviving mice (S. pyogenes [6]; all doses (total)): 80%
Solubility (physchem; in water at room temperature, sodium salt): 252 mg/mL
Solubility in comparison (physchem): more soluble than form I
TNF-alpha MW ([7]; 2 μg, blood after 48 hours, sodium salt): 0.0 pg/mL
TNF-alpha MW ([7]; 20 μg, blood after 48 hours, sodium salt): 0.0 pg/mL
TNF-alpha MW ([7]; 200 μg, blood after 48 hours, sodium salt): 16.94 pg/mL
TNF-alpha MW ([7]; all doses (total), blood after 48 hours, sodium salt): 5.65 pg/mL
IL-6 increase ([7]; blood after 48 hours): neither in the substance groups nor in the control groups increases could be found
TNF-alpha increase ([7]; compared to the other groups, sodium salt): do not cause a relevant increase
Germ load (CFU) Blood MW (S. pyogenes [8]; 2 μg): 5.96 log/mL
Germ load (CFU) Liver MW (S. pyogenes [8]; 2 μg): 6.13 log/g
Germ load (CFU) Blood MW (S. pyogenes [8]; 20 μg): 5.88 log/mL
Germ load (CFU) Liver MW (S. pyogenes [8]; 20 μg): 6.79 log/g
Germ load (CFU) Blood MW (S. pyogenes [8]; 200 μg): 5.54 log/mL
Germ load (CFU) Liver MW (S. pyogenes [8]; 200 μg): 6.14 log/g
Germ load (CFU) Blood MW (S. pyogenes [8]; all doses (total)): 5.80 log/mL
Germ load (CFU) Liver MW (S. pyogenes [8]; all doses (total)): 6.36 log/g
Germ count in the blood compared to the controls (S. pyogenes [8]; highest dose): tendentious germ count reduction
Effect on IL-6 values [9]: immunodepressive effect
Transaminases GOT (AST) and GPT (ALT) [10]: Distinct differences between the groups could not be found
Toxicity judged from weight development [11]: do not have any toxicity or at most a very small one
Weight development/increase MW ([11]; 2 μg per animal and application, parenteral, sodium salt): -0.14 g
Weight development/increase MW ([11]; 20 μg per animal and application, parenteral, sodium salt): 1.43 g
Weight development/increase MW ([11]; 200 μg per animal and application, parenteral, sodium salt): 0.50 g
Weight development/increase MW ([11]; all doses (total)): 0.59 g
